Test results published in patent US10323036B2 (Nimbus Lakshmi, Inc., priority 2016, dated 2019).
pKd: −log10 of the molar value. Where two headings read alike, the source gives them in different places.

Target: human TYK2 (JH2domain-pseudokinase) (Homo sapiens (Human), UniProt P29597)
Assay: TYK2 JH2 Domain Binding Assay (KINOMEscan)
[1] = Table 4, JH2 binding assay, read-out: JH2 Kd
[2] = Table 5, Tyk2 JH2 Domain Binding Assay, read-out: JH2 Kd
[3] = Tyk2 JH2 Domain Binding Assay, read-out: Kd

Chain of human TYK2 (JH2domain-pseudokinase) (P29597 556-888): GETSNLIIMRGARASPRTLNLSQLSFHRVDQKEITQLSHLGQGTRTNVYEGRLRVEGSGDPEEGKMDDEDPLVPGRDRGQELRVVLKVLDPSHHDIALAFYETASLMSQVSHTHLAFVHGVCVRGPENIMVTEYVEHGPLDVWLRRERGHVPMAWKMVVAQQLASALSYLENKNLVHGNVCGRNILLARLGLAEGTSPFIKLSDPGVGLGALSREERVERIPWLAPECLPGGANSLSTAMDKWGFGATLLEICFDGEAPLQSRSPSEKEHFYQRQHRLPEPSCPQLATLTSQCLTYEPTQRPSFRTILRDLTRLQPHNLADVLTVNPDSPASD

SMILES | pKd [1] | pKd [2] | pKd [3]
COCc1ccnc(Nc2cc(Nc3cccc(Cl)c3OC)c3c(=O)n(C)[nH]c3n2)c1 [Compound I-97, 4-((3-chloro-2-methoxyphenyl)amino)-6-((4-(methoxymethyl)pyridin-2-yl)amino)-2-methyl-1,2-dihydro-3H-pyrazolo[3,4-b]pyridin-3-one] | 9.00 to 9.30 | – | –
COc1c(Nc2cc(NC(=O)C3CC3)nc3[nH]n(C)c(=O)c23)cccc1C(=O)O [Compound I-231, 3-((6-(cyclopropanecarboxamido)-2-methyl-3-oxo-2,3-dihydro-1H-pyrazolo[3,4-b]pyridin-4-yl)amino)-2-methoxybenzoic acid] | 8.00 to 9.00 | – | –
Cn1[nH]c2nc(Nc3cncc(C#N)n3)cc(Nc3ccccc3S(C)(=O)=O)c2c1=O [Compound I-119, 6-((2-methyl-4-((2-(methylsulfonyl)phenyl)amino)-3-oxo-2,3-dihydro-1H-pyrazolo[3,4-b]pyridin-6-yl)amino)pyrazine-2-carbonitrile] | 8.00 to 9.00 | – | –
COc1c(Cl)cccc1Nc1cc(Nc2cnc(C3CC3)c(C#N)n2)nc2[nH]n(C)c(=O)c12 [Compound I-146, 6-((4-((3-chloro-2-methoxyphenyl)amino)-2-methyl-3-oxo-2,3-dihydro-1H-pyrazolo[3,4-b]pyridin-6-yl)amino)-3-cyclopropylpyrazine-2-carbonitrile] | < 8.00 | – | –
COc1c(F)cccc1Nc1cc(Nc2ccc(N3CCCC3)cn2)nc2[nH]n(C)c(=O)c12 [Compound I-90, 4-((3-fluoro-2-methoxyphenyl)amino)-2-methyl-6-((5-(pyrrolidin-1-yl)pyridin-2-yl)amino)-1,2-dihydro-3H-pyrazolo[3,4-b]pyridin-3-one] | < 8.00 | – | –
COc1c(Nc2cc(NC(=O)C3CC3)nc3[nH]n(C)c(=O)c23)cccc1-n1cccn1 [Compound I-56, N-(4-((2-methoxy-3-(1H-pyrazol-1-yl)phenyl)amino)-2-methyl-3-oxo-2,3-dihydro-1H-pyrazolo[3,4-b]pyridin-6-yl)cyclopropanecarboxamide] | 9.00 to 9.30 | – | –
CNc1nn(-c2cccc(-c3nnn(C)n3)c2OC)c2cc(NC(=O)C3CC3)ncc12 [XVI-3, N-(1-(2-methoxy-3-(2-methyl-2H-tetrazol-5-yl)phenyl)-3-(methylamino)-1H-pyrazolo[4,3-c]pyridin-6-yl)cyclopropanecarboxamide] | – | < 7.00 | 5.00 to 5.15
COc1c(F)cccc1Nc1cc(Nc2cc(C)c(F)cn2)nc2[nH]n(C)c(=O)c12 [Compound I-73, 4-((3-fluoro-2-methoxyphenyl)amino)-6-((5-fluoro-4-methylpyridin-2-yl)amino)-2-methyl-1,2-dihydro-3H-pyrazolo[3,4-b]pyridin-3-one] | 8.00 to 9.00 | – | –
CNc1nn(-c2cccc(-c3ncn(C)n3)c2OC)c2cc(NC(=O)C3CC3)ncc12 [XVI-1, N-(1-(2-methoxy-3-(1-methyl-1H-1,2,4-triazol-3-yl)phenyl)-3-(methylamino)-1H-pyrazolo[4,3-c]pyridin-6-yl)cyclopropanecarboxamide] | – | 7.00 to 8.00 | 5.00 to 5.15
COc1c(Nc2cc(Nc3ccc(C)nn3)ncc2-c2ncc(Cl)s2)cccc1-c1nnn(C)n1 [VIII-16, 5-(5-chlorothiazol-2-yl)-N4-(2-methoxy-3-(2-methyl-2H-tetrazol-5-yl)phenyl)-N2-(6-methylpyridazin-3-yl)pyridine-2,4-diamine] | – | 9.00 to 10.00 | –
COCc1ccc(Nc2cc(NC(=O)C3CC3)nc3[nH]n(C)c(=O)c23)c(OC)c1 [Compound I-45, N-(4-((2-methoxy-4-(methoxymethyl)phenyl)amino)-2-methyl-3-oxo-2,3-dihydro-1H-pyrazolo[3,4-b]pyridin-6-yl)cyclopropanecarboxamide] | 8.00 to 9.00 | – | –
COc1c(F)cccc1Nc1cc(Nc2ccn(C)n2)nc2[nH]n(C)c(=O)c12 [Compound I-78, 4-((3-fluoro-2-methoxyphenyl)amino)-2-methyl-6-((1-methyl-1H-pyrazol-3-yl)amino)-1,2-dihydro-3H-pyrazolo[3,4-b]pyridin-3-one] | 8.00 to 9.00 | – | –
COc1c(Nc2cc(Nc3cc(C)c(F)cn3)nc3[nH]n(C)c(=O)c23)cccc1-c1cnc[nH]1 [Compound I-133] | 9.30 to 10.00 | – | –
COc1c(Cl)cccc1Nc1cc(Nc2cncc(C#N)n2)nc2[nH]n(C)c(=O)c12 [Compound I-117, 6-((4-((3-chloro-2-methoxyphenyl)amino)-2-methyl-3-oxo-2,3-dihydro-1H-pyrazolo[3,4-b]pyridin-6-yl)amino)pyrazine-2-carbonitrile] | < 8.00 | – | –
COc1c(Nc2cc(NC(=O)C3CC3)nc3[nH]n(C)c(=O)c23)cccc1C(N)=O [Compound I-102, 3-((6-(cyclopropanecarboxamido)-2-methyl-3-oxo-2,3-dihydro-1H-pyrazolo[3,4-b]pyridin-4-yl)amino)-2-methoxybenzamide] | < 8.00 | – | –
Cn1[nH]c2nc(Nc3cccc(C(F)(F)F)n3)cc(Nc3ccc(C4CC4)cc3S(C)(=O)=O)c2c1=O [Compound I-215, 4-((4-cyclopropyl-2-(methylsulfonyl)phenyl)amino)-2-methyl-6-((6-(trifluoromethyl)pyridin-2-yl)amino)-1,2-dihydro-3H-pyrazolo[3,4-b]pyridin-3-one] | 9.30 to 10.00 | – | –
COc1c(C#N)cccc1Nc1cc(Nc2ccc(C)nn2)nc2[nH]n(C)c(=O)c12 [Compound I-38] | < 8.00 | – | –

SMILES | pKd [1] | pKd [2] | pKd [3]
COc1c(F)cccc1Nc1cc(NC(=O)C2CC2)nc2[nH]n(C)c(=O)c12 [Compound I-48, N-(4-((3-fluoro-2-methoxyphenyl)amino)-2-methyl-3-oxo-2,3-dihydro-1H-pyrazolo[3,4-b]pyridin-6-yl)cyclopropanecarboxamide] | 9.00 to 9.30 | – | –
COc1cc(C(=O)N2CCOCC2)ccc1Nc1cc(NC(=O)C2CC2)nc2[nH]n(C)c(=O)c12 [Compound I-71, N-(4-((2-methoxy-4-(morpholine-4-carbonyl)phenyl)amino)-2-methyl-3-oxo-2,3-dihydro-1H-pyrazolo[3,4-b]pyridin-6-yl)cyclopropanecarboxamide] | 9.00 to 9.30 | – | –
COCc1ccc(Nc2cc(Nc3ccc(C(=O)N4CCCC4)c(C(F)(F)F)n3)nc3[nH]n(C)c(=O)c23)c(OC)c1 [Compound I-92, 4-((2-methoxy-4-(methoxymethyl)phenyl)amino)-2-methyl-6-((5-(pyrrolidine-1-carbonyl)-6-(trifluoromethyl)pyridin-2-yl)amino)-1,2-dihydro-3H-pyrazolo[3,4-b]pyridin-3-one] | 9.30 to 10.00 | – | –
COc1c(Nc2cc(NC(=O)C3CC3)ncc2-c2ccon2)cccc1-c1nnn(C)n1 [VIII-8, N-(5-(isoxazol-3-yl)-4-((2-methoxy-3-(2-methyl-2H-tetrazol-5-yl)phenyl)amino)pyridin-2-yl)cyclopropanecarboxamide] | – | < 7.00 | –
COc1c(Nc2cc(N)nc3[nH]n(C)c(=O)c23)cccc1C(=O)O [Compound I-241, 3-((6-amino-2-methyl-3-oxo-2,3-dihydro-1H-pyrazolo[3,4-b]pyridin-4-yl)amino)-2-methoxybenzoic acid] | < 8.00 | – | –
COc1cc(CO)ccc1Nc1cc(NC(=O)C2CC2)nc2[nH]n(C)c(=O)c12 [Compound I-44] | 8.00 to 9.00 | – | –
COc1cccnc1Nc1cc(NC(=O)C2CC2)nc2[nH]n(C)c(=O)c12 [Compound I-223, N-(4-((3-methoxypyridin-2-yl)amino)-2-methyl-3-oxo-2,3-dihydro-1H-pyrazolo[3,4-b]pyridin-6-yl)cyclopropanecarboxamide] | 8.00 to 9.00 | – | –
COCc1ccc(Nc2cc(Nc3cccc(C#N)n3)nc3[nH]n(C)c(=O)c23)c(OC)c1 [Compound I-68, 6-((4-((2-methoxy-4-(methoxymethyl)phenyl)amino)-2-methyl-3-oxo-2,3-dihydro-1H-pyrazolo[3,4-b]pyridin-6-yl)amino)picolinonitrile] | 9.30 to 10.00 | – | –
COc1c(Nc2cc(Nc3ccc(C)nn3)nc3[nH]n(C)c(=O)c23)cccc1-c1ccn(C)n1 [Compound I-121, 4-((2-methoxy-3-(1-methyl-1H-pyrazol-3-yl)phenyl)amino)-2-methyl-6-((6-methylpyridazin-3-yl)amino)-1,2-dihydro-3H-pyrazolo[3,4-b]pyridin-3-one] | 9.00 to 9.30 | – | –
COc1c(Nc2cc(Nc3cccc(N4CC(OC)C4)n3)nc3[nH]n(C)c(=O)c23)cccc1-c1nnn(C)n1 [Compound I-63, 4-((2-methoxy-3-(2-methyl-2H-tetrazol-5-yl)phenyl)amino)-6-((6-(3-methoxyazetidin-1-yl)pyridin-2-yl)amino)-2-methyl-1,2-dihydro-3H-pyrazolo[3,4-b]pyridin-3-one] | 9.30 to 10.00 | – | –
COCc1ccnc(Nc2cc(Nc3cccc(C(N)=O)c3OC)c3c(=O)n(C)[nH]c3n2)c1 [Compound I-126, 2-methoxy-3-((6-((4-(methoxymethyl)pyridin-2-yl)amino)-2-methyl-3-oxo-2,3-dihydro-1H-pyrazolo[3,4-b]pyridin-4-yl)amino)benzamide] | < 8.00 | – | –
COc1c(Cl)cccc1Nc1cc(Nc2cnc(C(C)C)c(C#N)n2)nc2[nH]n(C)c(=O)c12 [Compound I-158, 6-((4-((3-chloro-2-methoxyphenyl)amino)-2-methyl-3-oxo-2,3-dihydro-1H-pyrazolo[3,4-b]pyridin-6-yl)amino)-3-isopropylpyrazine-2-carbonitrile] | < 8.00 | – | –
COc1c(Nc2cc(NC(=O)C3CC3)nc3[nH]n(C)c(=O)c23)ccc(F)c1F [Compound I-127, N-(4-((3,4-difluoro-2-methoxyphenyl)amino)-2-methyl-3-oxo-2,3-dihydro-1H-pyrazolo[3,4-b]pyridin-6-yl)cyclopropanecarboxamide] | < 8.00 | – | –
COc1cc(C2CCC2)ccc1Nc1cc(NC(=O)C2CC2)nc2[nH]n(C)c(=O)c12 [Compound I-51] | < 8.00 | – | –
Cn1[nH]c2nc(Nc3ccc(N4CCCCC4)cn3)cc(Nc3ccccc3S(C)(=O)=O)c2c1=O [Compound I-118, 2-methyl-4-((2-(methylsulfonyl)phenyl)amino)-6-((5-(piperidin-1-yl)pyridin-2-yl)amino)-1,2-dihydro-3H-pyrazolo[3,4-b]pyridin-3-one] | < 8.00 | – | –
COCc1ccc(Nc2cc(Nc3cccc(C(F)(F)F)n3)nc3[nH]n(C)c(=O)c23)c(OC)c1 [Compound I-67, 4-((2-methoxy-4-(methoxymethyl)phenyl)amino)-2-methyl-6-((6-(trifluoromethyl)pyridin-2-yl)amino)-1,2-dihydro-3H-pyrazolo[3,4-b]pyridin-3-one] | 8.00 to 9.00 | – | –
